Results taken from PubChem BioAssay AID1963425 (Molecular Pharmacology Branch, DTP, NCI, 2024).

Test system: 323965-272-R-J2-PDC complex spheroid growth, % test/control
Experiment: Anticancer human tumor 323965-272-R-J2-PDC patient-derived pancreatic carcinoma cell line growth inhibition [Asc]
Conditions: for IC50: curve of first compound; for viability, T/C: stronger effect = lower value
Procedure, shortened: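 Complex solid-tumor spheroids incorporating human endothelial and mesenchymal stem cells received single agents or combinations over half-log dilution ranges anchored to clinical Cmax.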

[1] = second compound 0.0316 µM, first compound 0.0316 µM
[2] = second compound 0.0316 µM, first compound 0.1 µM
[3] = second compound 0.0316 µM, first compound 0.316 µM
[4] = second compound 0.0316 µM, first compound 1 µM
[5] = second compound 0.1 µM, first compound 0.0316 µM
[6] = second compound 0.1 µM, first compound 0.1 µM
[7] = second compound 0.1 µM, first compound 0.316 µM
[8] = second compound 0.1 µM, first compound 1 µM
[9] = second compound 0.316 µM, first compound 0.0316 µM
[10] = second compound 0.316 µM, first compound 0.1 µM
[11] = second compound 0.316 µM, first compound 0.316 µM
[12] = second compound 0.316 µM, first compound 1 µM
[13] = second compound 1 µM, first compound 0.0316 µM
[14] = second compound 1 µM, first compound 0.1 µM
[15] = second compound 1 µM, first compound 0.316 µM
[16] = second compound 1 µM, first compound 1 µM
[17] = second compound 3.16 µM, first compound 0.0316 µM
[18] = second compound 3.16 µM, first compound 0.1 µM
[19] = second compound 3.16 µM, first compound 0.316 µM
[20] = second compound 3.16 µM, first compound 1 µM
[21] = second compound 10 µM, first compound 0.0316 µM
[22] = second compound 10 µM, first compound 0.1 µM
[23] = second compound 10 µM, first compound 0.316 µM
[24] = second compound 10 µM, first compound 1 µM
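Further: compound exposure lasted 7 days starting three days after spheroid seeding.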
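Wherever viability, T/C is given: 100% = DMSO vehicle control wells with viability set relative to vehicle.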

Structure (SMILES): C#Cc1c(F)ccc2cc(O)cc(-c3ncc4c(N5CC6CCC(C5)N6)nc(OCC56CCCN5CC(F)C6)nc4c3F)c12 (stereo unspecified) + Cc1c(S(C)(=O)=O)c(-c2cc(F)cc(N3CCN(c4ccc(NS(=O)(=O)c5ccc(NC(CCN6CCC(C(=O)OCCCP(=O)(O)O)CC6)CSc6ccccc6)c(S(=O)(=O)C(F)(F)F)c5)cc4)CC3)c2)c(-c2ccc(Cl)cc2)n1C(C)C
- IC50 (second compound 0.0316 µM): > 10000 nM
- IC50 (second compound 0.1 µM): > 10000 nM
- IC50 (second compound 0.316 µM): 8150 nM
- IC50 (second compound 1 µM): 6920 nM
- IC50 (second compound 3.16 µM): 4120 nM
- IC50 (second compound 10 µM): 3590 nM
- viability, T/C [1]: 99.9%
- viability, T/C [2]: 98.2%
- viability, T/C [3]: 109%
- viability, T/C [4]: 108%
- viability, T/C (second compound 0.0316 µM, first compound 3.16 µM): 79.4%
- viability, T/C (second compound 0.0316 µM, first compound 10 µM): 58.2%
- viability, T/C [5]: 100%
- viability, T/C [6]: 111%
- viability, T/C [7]: 93.2%
- viability, T/C [8]: 93.2%
- viability, T/C (second compound 0.1 µM, first compound 3.16 µM): 75.7%
- viability, T/C (second compound 0.1 µM, first compound 10 µM): 51.4%
- viability, T/C [9]: 97.8%
- viability, T/C [10]: 99.1%
- viability, T/C [11]: 98.2%
- viability, T/C [12]: 90.6%
- viability, T/C (second compound 0.316 µM, first compound 3.16 µM): 73.9%
- viability, T/C (second compound 0.316 µM, first compound 10 µM): 45%
- viability, T/C [13]: 87.1%
- viability, T/C [14]: 87.9%
- viability, T/C [15]: 88.4%
- viability, T/C [16]: 80.8%
- viability, T/C (second compound 1 µM, first compound 3.16 µM): 67.9%
- viability, T/C (second compound 1 µM, first compound 10 µM): 41.5%
- viability, T/C [17]: 74.6%
- viability, T/C [18]: 73.8%
- viability, T/C [19]: 80.7%
- viability, T/C [20]: 76.5%
- viability, T/C (second compound 3.16 µM, first compound 3.16 µM): 56.2%
- viability, T/C (second compound 3.16 µM, first compound 10 µM): 29.3%
- viability, T/C [21]: 72%
- viability, T/C [22]: 73.6%
- viability, T/C [23]: 59.9%
- viability, T/C [24]: 72%
- viability, T/C (second compound 10 µM, first compound 3.16 µM): 50.9%
- viability, T/C (second compound 10 µM, first compound 10 µM): 24.4%

Structure (SMILES): CNC(C)C(=O)NC1CN(S(=O)(=O)c2cccc(S(=O)(=O)N3CCC4CCC(C(=O)NC(c5ccccc5)c5ccccc5)N4C(=O)C(NC(=O)C(C)NC)C3)c2)CCC2CCC(C(=O)NC(c3ccccc3)c3ccccc3)N2C1=O (stereo unspecified) + Cc1c(S(C)(=O)=O)c(-c2cc(F)cc(N3CCN(c4ccc(NS(=O)(=O)c5ccc(NC(CCN6CCC(C(=O)OCCCP(=O)(O)O)CC6)CSc6ccccc6)c(S(=O)(=O)C(F)(F)F)c5)cc4)CC3)c2)c(-c2ccc(Cl)cc2)n1C(C)C
- IC50 (second compound 0.0316 µM): > 1000 nM
- IC50 (second compound 0.1 µM): > 1000 nM
- IC50 (second compound 0.316 µM): 878 nM
- IC50 (second compound 1 µM): 745 nM
- IC50 (second compound 3.16 µM): 569 nM
- IC50 (second compound 10 µM): 324 nM
- viability, T/C (second compound 0.0316 µM, first compound 0.00316 µM): 106%
- viability, T/C (second compound 0.0316 µM, first compound 0.01 µM): 119%
- viability, T/C [1]: 96.3%
- viability, T/C [2]: 103%
- viability, T/C [3]: 99.3%
- viability, T/C [4]: 58.4%
- viability, T/C (second compound 0.1 µM, first compound 0.00316 µM): 107%
- viability, T/C (second compound 0.1 µM, first compound 0.01 µM): 96.6%
- viability, T/C [5]: 98.2%
- viability, T/C [6]: 107%
- viability, T/C [7]: 93%
- viability, T/C [8]: 54.1%
- viability, T/C (second compound 0.316 µM, first compound 0.00316 µM): 96.9%
- viability, T/C (second compound 0.316 µM, first compound 0.01 µM): 90.1%
- viability, T/C [9]: 90.8%
- viability, T/C [10]: 86.1%
- viability, T/C [11]: 93.4%
- viability, T/C [12]: 44.7%
- viability, T/C (second compound 1 µM, first compound 0.00316 µM): 90.2%
- viability, T/C (second compound 1 µM, first compound 0.01 µM): 85.7%
- viability, T/C [13]: 85.7%
- viability, T/C [14]: 76.7%
- viability, T/C [15]: 83%
- viability, T/C [16]: 38.8%
- viability, T/C (second compound 3.16 µM, first compound 0.00316 µM): 79.8%
- viability, T/C (second compound 3.16 µM, first compound 0.01 µM): 70.9%
- viability, T/C [17]: 64%
- viability, T/C [18]: 75.8%
- viability, T/C [19]: 72%
- viability, T/C [20]: 29%
- viability, T/C (second compound 10 µM, first compound 0.00316 µM): 77.4%
- viability, T/C (second compound 10 µM, first compound 0.01 µM): 80.1%
- viability, T/C [21]: 65.8%
- viability, T/C [22]: 59.8%
- viability, T/C [23]: 57%
- viability, T/C [24]: 22.6%

Structure (SMILES): Cc1nc(N2CCC3(CC2)COC(C)C3N)c(CO)nc1Sc1ccnc(N)c1Cl (stereo unspecified) + Cc1c(S(C)(=O)=O)c(-c2cc(F)cc(N3CCN(c4ccc(NS(=O)(=O)c5ccc(NC(CCN6CCC(C(=O)OCCCP(=O)(O)O)CC6)CSc6ccccc6)c(S(=O)(=O)C(F)(F)F)c5)cc4)CC3)c2)c(-c2ccc(Cl)cc2)n1C(C)C
- IC50 (second compound 0.0316 µM): 1610 nM
- IC50 (second compound 0.1 µM): 981 nM
- IC50 (second compound 0.316 µM): 809 nM
- IC50 (second compound 1 µM): 281 nM
- IC50 (second compound 3.16 µM): 85.9 nM
- IC50 (second compound 10 µM): 59.2 nM
- viability, T/C (second compound 0.0316 µM, first compound 0.00949 µM): 92.9%
- viability, T/C (second compound 0.0316 µM, first compound 0.03 µM): 87.9%
- viability, T/C (second compound 0.0316 µM, first compound 0.0949 µM): 79.6%
- viability, T/C (second compound 0.0316 µM, first compound 0.3 µM): 67.8%
- viability, T/C (second compound 0.0316 µM, first compound 0.949 µM): 54.9%
- viability, T/C (second compound 0.0316 µM, first compound 3 µM): 44.2%
- viability, T/C (second compound 0.1 µM, first compound 0.00949 µM): 105%
- viability, T/C (second compound 0.1 µM, first compound 0.03 µM): 96.2%
- viability, T/C (second compound 0.1 µM, first compound 0.0949 µM): 70.6%
- viability, T/C (second compound 0.1 µM, first compound 0.3 µM): 69%
- viability, T/C (second compound 0.1 µM, first compound 0.949 µM): 49.1%
- viability, T/C (second compound 0.1 µM, first compound 3 µM): 37.8%
- viability, T/C (second compound 0.316 µM, first compound 0.00949 µM): 92.2%
- viability, T/C (second compound 0.316 µM, first compound 0.03 µM): 87.2%
- viability, T/C (second compound 0.316 µM, first compound 0.0949 µM): 76.1%
- viability, T/C (second compound 0.316 µM, first compound 0.3 µM): 62.2%
- viability, T/C (second compound 0.316 µM, first compound 0.949 µM): 48.5%
- viability, T/C (second compound 0.316 µM, first compound 3 µM): 35.9%
- viability, T/C (second compound 1 µM, first compound 0.00949 µM): 81%
- viability, T/C (second compound 1 µM, first compound 0.03 µM): 78%
- viability, T/C (second compound 1 µM, first compound 0.0949 µM): 64.8%
- viability, T/C (second compound 1 µM, first compound 0.3 µM): 48.9%
- viability, T/C (second compound 1 µM, first compound 0.949 µM): 36.1%
- viability, T/C (second compound 1 µM, first compound 3 µM): 28.1%
- viability, T/C (second compound 3.16 µM, first compound 0.00949 µM): 72.8%
- viability, T/C (second compound 3.16 µM, first compound 0.03 µM): 64.3%
- viability, T/C (second compound 3.16 µM, first compound 0.0949 µM): 45.8%
- viability, T/C (second compound 3.16 µM, first compound 0.3 µM): 37.6%
- viability, T/C (second compound 3.16 µM, first compound 0.949 µM): 29.6%
- viability, T/C (second compound 3.16 µM, first compound 3 µM): 19.6%
- viability, T/C (second compound 10 µM, first compound 0.00949 µM): 73.3%
- viability, T/C (second compound 10 µM, first compound 0.03 µM): 59.3%
- viability, T/C (second compound 10 µM, first compound 0.0949 µM): 41.7%
- viability, T/C (second compound 10 µM, first compound 0.3 µM): 34.5%
- viability, T/C (second compound 10 µM, first compound 0.949 µM): 23.2%
- viability, T/C (second compound 10 µM, first compound 3 µM): 15%
